Measured values: patent publication US11203770B2, “Methods for producing caprylic acid and/or caprylate” (Cornell University, priority 2016, dated 2021)

How the values were obtained:
reactor microbiome = experiment: inhibition of the chain-elongating reactor microbiome in the continuously fed upflow anaerobic filter; type: cell-based; settings: for high residual concentration that inhibits microbial activity: bioreactor broth, mildly acidic pH, n-caprylic acid as undissociated acid
Description: Experimental. Continuously fed bioreactor system. An upflow anaerobic filter was used with constant bioreactor broth recycling through an in-line membrane liquid-liquid extraction (i.e. pertraction) system (FIG. 8). The bioreactor was a vertically oriented cylinder, which was made of Plexiglas®, with an inner diameter of 6 cm. The total volume was 0.90 L, but […]1 packing material (Evolution Aqua, Wigan, United Kingdom) was added, resulting in a working volume of 0.70 L. […] A pH probe (Mettler 405-[…], Columbus, Ohio, USA) was mounted at the top of the bioreactor. Automated pH control of the bioreactor broth was maintained with a controller (Eutech Instruments alpha-pH800, Vernon Hills, Ill., USA) and a corresponding acid addition pump ([…] 913, Bradenton, Fla., USA). […] The effluent continuously exited the bioreactor via an overflow line connected to the top of the bioreactor. The exit of the overflow line was submerged within a secondary effluent reservoir. An inverted funnel was used to collect the biogas within the bioreactor and was connected to a flow meter (Ritter MGC-1, Bochum, Germany). In addition, a gas-sample septum and a bubbler were placed in the gas collection system. A sampling port for biomass samples was placed halfway up the vertically oriented bioreactor. Periods for the bioreactor study. This bioreactor was divided into two phases: I) a start-up phase with continuous feeding (with the product extraction system on or off); and II) a high n-caprylate productivity phase (with continuous feeding and the product extraction system on). Each phase was then divided into several distinct operating periods. From period to period, several operating parameters were varied, including the: organic loading rate (OLR); HRT; bioreactor pH; and operation with or without product extraction (Table 1). Each operating period was operated for at least five HRT periods, and average bioreactor loading rates and concentrations were reported. During Period 1 in Phase I (Days 0-15), pre-washed inoculum was added to the upflow anaerobic filter after which a continuous feeding strategy was initiated. […] The bioreactor was re-inoculated on Day 15 of Period 2 in Phase I (Days 15-54) with pre-washed inoculum, and then again on Day 54 of Period 3 of Phase I (Days 54-64) with non-washed inoculum. This last inoculation carried some carboxylates from the inoculation bioreactor. During Period 4 of Phase I (Days 64-80), the product extraction was turned off. […] In addition, we increased the OLR from 1.8 to 3.8 g COD/L-d (Table 2). Day 98 represented the start of Phase II (Period 6; Days 98-128), by switching on the product extraction system. Next, we increased the OLRs in a step-wise fashion during 4 out of the next 5 periods in Phase II. […]

methanogens = experiment: toxicity to methanogens in small serum bottles; type: cell-based; settings: concentrations present in the bioreactor
Text: Thus, at a pH of 7.0 we would have anticipated a methanogenic anaerobic digester rather than a chain elongating bioreactor. […] This explains why we can chain elongate at the higher pH levels without adding a methanogenic-inhibiting compound such as bromo-ethanesulfonate (BrES). […] This substantiates the claim that we can operate a chain elongating bioreactor sustainably at a pH level of 7.0.

[1] = cited from earlier work

| Structure (SMILES) | residual ethanol concentration at which microbial inhibition was reached (reactor microbiome; Period 11, bioreactor broth) [g COD/L] | high residual concentration that inhibits microbial activity (reactor microbiome) [mM] | toxic concentration, times lower than n-caproic acid (reactor microbiome; undissociated acids, toxicity to the community) | toxicity of undissociated acid to methanogens (methanogens) | solubility limit of the undissociated acid [1] [mM] |
| --- | --- | --- | --- | --- | --- |
| CCO [ethanol] | ~28 | ~300 | – | – | – |
| CCCCCCCC(=O)O [n-caprylic acid] | – | 0.62 | approximately 10 × | toxic | – |
| CCCCCC(=O)O [n-caproic acid] | – | – | – | – | 93 |
